According to patent publication US20210401710A1, “AZOXYSTROBIN EFFICACY IN PERSONAL CARE FORMS” (The Procter & Gamble Company, priority 2020, published 2021):

Tested on: Malassezia furfur (CBS 7982)
Experiment: In Vitro Antifungal Minimum Inhibitory Concentration (MIC) Testing
Type: cell-based
Details: azoxystrobin itself against Malassezia, value used in the model
Procedure: Malassezia furfur (CBS 7982) is maintained continuously as a culture at 31° C. in a 250-ml vent-capped polycarbonate Erlenmeyer flask by combining approximately 50 ml of mDixon growth medium and 2.5 ml of previously grown Malassezia culture. For each assay, Malassezia cells from 24-hour-old culture (approximately 7.5×10^8 cells/ml) are diluted 500-fold into mDixon growth medium. Micropipettes are used to transfer 295 ul of diluted cells to each well of a Beckman 267007 polypropylene round-bottom deep-well plate. Product forms are prepared for testing as concentrated stocks in water. Micropipettes are used to transfer 5 ul of appropriately diluted product form to the diluted Malassezia cells in the round-bottom deep-well plate. A semipermeable sealing film is applied to the plate which is then covered with water-soaked cotton batting. The deep-well plates are shaken at 31° C. on a Heidolph Titramax 1000 shaker at 1350 rpm for approximately 20 hours. The samples are mixed by micropipetting before transferring 200 ul of sample culture from each well to a Corning 3596 polystyrene plate. The plates are read immediately for absorbance at 600 nm using a Molecular Devices SpectraMax M5 plate reader. MIC values are presented as ppm of active.

Structure (SMILES): CO/C=C(/C(=O)OC)c1ccccc1Oc1cc(Oc2ccccc2C#N)ncn1 [Azoxystrobin]
- minimal inhibitory concentration (MIC): 0.2-0.9 ppm
